Measurements as given in patent US6641843B1, “Pharmaceutical compositions” (SmithKline Beecham Corporation, priority 1998, dated 2003).

Test: Stability and excipient compatibility of the compound in oral solution
Format: physicochemical
Text: Solutions of (1S,4R)-cis-4-[2-amino-6-cyclopropylamino)-9H-purin-9-yl]-2-cyclopentene-1-methanol are bitter-tasting and therefore require the addition of sweeteners and taste-maskers. However, formulation of (1S,4R)-cis-4-[2-amino-6-cyclopropylamino)-9H-purin-9-yl]-2-cyclopentene-1-methanol in solution is difficult because materials containing a —COOH group present problems with (1S,4R)-cis-4-[2-amino-6-cyclopropylamino)-9H-purin-9-yl]-2-cyclopentene-1-methanol compatibility.
Advantageously, the pH may be 3.8 to 4.5.

## Nc1nc(NC2CC2)c2ncn([C@H]3C=C[C@@H](CO)C3)c2n1 [abacavir]
In solution
  adduct formation with sorbitol and/or saccharin: do not lead to the formation of adducts
  compatibility with combinations of fructose, acesulfame and saccharin: compatible
  compatibility with sorbitol or saccharin or a combination of sorbitol and saccharin: compatible
In solution, glucose replaces the methanol group on the cyclopentyl ring
  adduct formation with glucose: forms an adduct
In solution, sucrose degrades to glucose and fructose
  compatibility with sucrose and glucose: incompatible
Metal chelator, for example citrate
  effect of addition of a metal chelator on stability in solution: improves the stability
pH 4.5-6.5
  appearance of solutions containing sorbitol: color change and the formation of dark colored particulates
pH lowered to about 4.0
  effect of lowering the pH on color change and particulates: eliminates the color change and the formation of particulates
